Measured values from the kinase profiling compilation of Christmann-Franck et al. (2016).

Tests used:
Test in all cases: KINOMEscan competition binding
Conditions in all cases: compound 10.0 µM
[1] = molecular target: PKN2 (human) (UniProt Q16513)
[2] = molecular target: RIOK1 (human) (UniProt Q9BRS2)
[3] = molecular target: SRPK1 (human) (UniProt Q96SB4)
[4] = molecular target: MARK4 (human) (UniProt Q96L34)
[5] = molecular target: STK32C (human) (UniProt Q86UX6)
[6] = molecular target: MAP3K12 (human) (UniProt Q12852)
[7] = molecular target: NEK1 (human) (UniProt Q96PY6)
[8] = molecular target: CDK18 (human) (UniProt Q07002)
[9] = molecular target: ANKK1 (human) (UniProt Q8NFD2)
[10] = molecular target: GSK3B (human) (UniProt P49841)
[11] = molecular target: CSNK2A2 (human) (UniProt P19784)
[12] = molecular target: CSF1R (human) (UniProt P07333)
[13] = molecular target: MAP2K5 (human) (UniProt Q13163)
[14] = molecular target: SNRK (human) (UniProt Q9NRH2)
[15] = molecular target: STK16 (human) (UniProt O75716)
[16] = test system: FLT3 (human), P36888 [D835Y]
[17] = molecular target: TESK1 (human) (UniProt Q15569)
[18] = molecular target: SBK1 (human) (UniProt Q52WX2)
[19] = molecular target: MKNK2 (human) (UniProt Q9HBH9)
[20] = molecular target: PRKAA1 (human) (UniProt Q13131)
[21] = molecular target: HUNK (human) (UniProt P57058)
[22] = molecular target: PDGFRA (human) (UniProt P16234)
[23] = molecular target: MINK1 (human) (UniProt Q8N4C8)
[24] = molecular target: MAPK10 (human) (UniProt P53779)
[25] = molecular target: STK35 (human) (UniProt Q8TDR2)
[26] = molecular target: RPS6KA4 KD2 (human) (UniProt O75676)
[27] = molecular target: MAPK11 (human) (UniProt Q15759)
[28] = molecular target: STK33 (human) (UniProt Q9BYT3)
[29] = test system: EGFR (human), P00533 [L858R]
[30] = molecular target: AURKA (human) (UniProt O14965)
[31] = molecular target: AURKB (human) (UniProt Q96GD4)
[32] = molecular target: CaMK1 (human) (UniProt Q14012)
[33] = molecular target: JAK2 JH1 catalytic (human) (UniProt O60674)
[34] = molecular target: AURKC (human) (UniProt Q9UQB9)
[35] = molecular target: AAK1 (human) (UniProt Q2M2I8)
[36] = molecular target: EPHA5 (human) (UniProt P54756)
[37] = molecular target: MAP3K15 (human) (UniProt Q6ZN16)
[38] = molecular target: RPS6KA1 KD2 (human) (UniProt Q15418)
[39] = molecular target: HCK (human) (UniProt P08631)
[40] = molecular target: PRKD2 (human) (UniProt Q9BZL6)

Sequence of AAK1 (human) (Q2M2I8 whole entry, looked up): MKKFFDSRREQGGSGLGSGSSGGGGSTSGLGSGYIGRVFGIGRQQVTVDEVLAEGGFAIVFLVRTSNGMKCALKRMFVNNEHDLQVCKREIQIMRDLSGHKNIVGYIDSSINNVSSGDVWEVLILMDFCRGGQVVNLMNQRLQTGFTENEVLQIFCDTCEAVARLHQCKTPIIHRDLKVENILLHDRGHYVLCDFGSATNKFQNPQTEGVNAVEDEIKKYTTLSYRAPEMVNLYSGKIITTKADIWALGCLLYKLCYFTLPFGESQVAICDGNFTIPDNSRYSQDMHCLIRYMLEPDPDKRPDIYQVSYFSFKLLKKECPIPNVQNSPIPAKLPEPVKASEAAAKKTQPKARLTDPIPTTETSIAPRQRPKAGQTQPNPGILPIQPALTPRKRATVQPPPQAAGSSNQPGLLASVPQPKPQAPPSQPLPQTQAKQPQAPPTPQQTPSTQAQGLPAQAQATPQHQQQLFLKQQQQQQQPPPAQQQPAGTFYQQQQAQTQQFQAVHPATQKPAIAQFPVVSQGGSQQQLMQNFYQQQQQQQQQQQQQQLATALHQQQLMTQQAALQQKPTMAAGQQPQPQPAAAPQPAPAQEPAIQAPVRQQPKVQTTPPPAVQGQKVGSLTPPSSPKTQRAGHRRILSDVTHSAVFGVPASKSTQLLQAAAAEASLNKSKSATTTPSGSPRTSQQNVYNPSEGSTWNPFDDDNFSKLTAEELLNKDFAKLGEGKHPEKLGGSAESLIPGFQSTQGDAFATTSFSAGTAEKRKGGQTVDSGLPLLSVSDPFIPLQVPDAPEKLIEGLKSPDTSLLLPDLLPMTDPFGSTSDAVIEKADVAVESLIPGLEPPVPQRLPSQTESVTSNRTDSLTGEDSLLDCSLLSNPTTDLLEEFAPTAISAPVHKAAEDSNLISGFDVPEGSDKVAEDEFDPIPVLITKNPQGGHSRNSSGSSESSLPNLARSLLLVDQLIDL
Sequence of SRPK1 (human) (Q96SB4 whole entry, looked up): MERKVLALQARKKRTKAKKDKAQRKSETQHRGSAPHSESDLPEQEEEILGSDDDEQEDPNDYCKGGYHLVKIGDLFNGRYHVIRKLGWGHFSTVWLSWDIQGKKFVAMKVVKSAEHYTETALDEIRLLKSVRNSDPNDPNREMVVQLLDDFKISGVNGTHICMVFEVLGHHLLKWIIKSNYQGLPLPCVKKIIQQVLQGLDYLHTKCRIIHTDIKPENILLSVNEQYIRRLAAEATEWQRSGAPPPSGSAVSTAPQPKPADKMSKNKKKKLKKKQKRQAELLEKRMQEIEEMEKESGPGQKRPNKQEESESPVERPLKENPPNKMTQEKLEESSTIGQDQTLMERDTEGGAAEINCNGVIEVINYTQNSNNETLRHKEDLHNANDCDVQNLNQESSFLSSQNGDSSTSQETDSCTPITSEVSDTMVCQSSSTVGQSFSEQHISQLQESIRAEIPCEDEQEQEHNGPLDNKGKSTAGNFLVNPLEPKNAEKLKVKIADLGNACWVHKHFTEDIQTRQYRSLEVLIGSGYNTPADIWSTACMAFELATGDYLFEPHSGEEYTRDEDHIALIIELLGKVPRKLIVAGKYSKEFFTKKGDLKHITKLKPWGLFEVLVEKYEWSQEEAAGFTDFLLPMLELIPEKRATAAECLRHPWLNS
Sequence of ANKK1 (human) (Q8NFD2 whole entry, looked up): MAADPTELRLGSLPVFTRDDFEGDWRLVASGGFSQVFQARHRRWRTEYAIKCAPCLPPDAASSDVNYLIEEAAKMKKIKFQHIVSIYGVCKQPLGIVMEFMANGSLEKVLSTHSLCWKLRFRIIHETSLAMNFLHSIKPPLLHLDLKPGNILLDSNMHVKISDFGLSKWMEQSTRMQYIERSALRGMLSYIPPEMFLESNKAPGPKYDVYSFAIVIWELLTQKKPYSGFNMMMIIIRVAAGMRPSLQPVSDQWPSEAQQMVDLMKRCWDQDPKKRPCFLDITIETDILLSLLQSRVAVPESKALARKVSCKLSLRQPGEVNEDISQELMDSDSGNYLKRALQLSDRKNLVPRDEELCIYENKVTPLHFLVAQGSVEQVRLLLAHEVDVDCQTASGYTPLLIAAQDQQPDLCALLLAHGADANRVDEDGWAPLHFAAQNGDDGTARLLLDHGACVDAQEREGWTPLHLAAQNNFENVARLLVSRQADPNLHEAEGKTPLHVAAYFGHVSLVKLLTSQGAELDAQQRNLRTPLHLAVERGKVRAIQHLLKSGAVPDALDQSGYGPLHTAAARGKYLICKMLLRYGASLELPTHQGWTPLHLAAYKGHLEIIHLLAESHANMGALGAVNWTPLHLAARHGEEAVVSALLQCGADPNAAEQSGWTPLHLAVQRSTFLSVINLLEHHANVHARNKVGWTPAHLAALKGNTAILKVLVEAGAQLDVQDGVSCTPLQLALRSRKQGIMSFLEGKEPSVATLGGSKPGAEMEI
Sequence of CaMK1 (human) (Q14012 whole entry, looked up): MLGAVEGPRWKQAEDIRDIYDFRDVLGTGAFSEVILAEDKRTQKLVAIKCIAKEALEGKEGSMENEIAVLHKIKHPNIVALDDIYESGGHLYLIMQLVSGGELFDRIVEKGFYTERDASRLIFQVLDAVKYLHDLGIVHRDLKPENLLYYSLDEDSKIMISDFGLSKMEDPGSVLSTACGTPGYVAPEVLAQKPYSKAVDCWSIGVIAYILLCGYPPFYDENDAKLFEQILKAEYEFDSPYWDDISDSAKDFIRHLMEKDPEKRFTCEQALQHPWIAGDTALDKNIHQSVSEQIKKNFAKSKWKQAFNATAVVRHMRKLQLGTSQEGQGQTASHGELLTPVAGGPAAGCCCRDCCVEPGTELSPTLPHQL
Sequence of MAP2K5 (human) (Q13163 whole entry, looked up): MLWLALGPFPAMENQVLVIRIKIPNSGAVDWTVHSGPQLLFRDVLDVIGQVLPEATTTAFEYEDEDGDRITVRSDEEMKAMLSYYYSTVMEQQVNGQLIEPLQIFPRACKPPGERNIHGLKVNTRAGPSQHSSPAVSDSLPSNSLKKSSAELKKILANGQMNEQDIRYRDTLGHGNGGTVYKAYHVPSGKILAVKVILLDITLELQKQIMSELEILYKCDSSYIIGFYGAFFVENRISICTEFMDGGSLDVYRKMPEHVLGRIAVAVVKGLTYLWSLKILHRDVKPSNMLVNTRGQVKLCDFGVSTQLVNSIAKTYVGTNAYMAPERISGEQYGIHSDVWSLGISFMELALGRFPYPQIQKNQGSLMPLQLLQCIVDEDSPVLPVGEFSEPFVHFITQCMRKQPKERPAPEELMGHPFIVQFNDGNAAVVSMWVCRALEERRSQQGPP
Sequence of MAP3K15 (human) (Q6ZN16 whole entry, looked up): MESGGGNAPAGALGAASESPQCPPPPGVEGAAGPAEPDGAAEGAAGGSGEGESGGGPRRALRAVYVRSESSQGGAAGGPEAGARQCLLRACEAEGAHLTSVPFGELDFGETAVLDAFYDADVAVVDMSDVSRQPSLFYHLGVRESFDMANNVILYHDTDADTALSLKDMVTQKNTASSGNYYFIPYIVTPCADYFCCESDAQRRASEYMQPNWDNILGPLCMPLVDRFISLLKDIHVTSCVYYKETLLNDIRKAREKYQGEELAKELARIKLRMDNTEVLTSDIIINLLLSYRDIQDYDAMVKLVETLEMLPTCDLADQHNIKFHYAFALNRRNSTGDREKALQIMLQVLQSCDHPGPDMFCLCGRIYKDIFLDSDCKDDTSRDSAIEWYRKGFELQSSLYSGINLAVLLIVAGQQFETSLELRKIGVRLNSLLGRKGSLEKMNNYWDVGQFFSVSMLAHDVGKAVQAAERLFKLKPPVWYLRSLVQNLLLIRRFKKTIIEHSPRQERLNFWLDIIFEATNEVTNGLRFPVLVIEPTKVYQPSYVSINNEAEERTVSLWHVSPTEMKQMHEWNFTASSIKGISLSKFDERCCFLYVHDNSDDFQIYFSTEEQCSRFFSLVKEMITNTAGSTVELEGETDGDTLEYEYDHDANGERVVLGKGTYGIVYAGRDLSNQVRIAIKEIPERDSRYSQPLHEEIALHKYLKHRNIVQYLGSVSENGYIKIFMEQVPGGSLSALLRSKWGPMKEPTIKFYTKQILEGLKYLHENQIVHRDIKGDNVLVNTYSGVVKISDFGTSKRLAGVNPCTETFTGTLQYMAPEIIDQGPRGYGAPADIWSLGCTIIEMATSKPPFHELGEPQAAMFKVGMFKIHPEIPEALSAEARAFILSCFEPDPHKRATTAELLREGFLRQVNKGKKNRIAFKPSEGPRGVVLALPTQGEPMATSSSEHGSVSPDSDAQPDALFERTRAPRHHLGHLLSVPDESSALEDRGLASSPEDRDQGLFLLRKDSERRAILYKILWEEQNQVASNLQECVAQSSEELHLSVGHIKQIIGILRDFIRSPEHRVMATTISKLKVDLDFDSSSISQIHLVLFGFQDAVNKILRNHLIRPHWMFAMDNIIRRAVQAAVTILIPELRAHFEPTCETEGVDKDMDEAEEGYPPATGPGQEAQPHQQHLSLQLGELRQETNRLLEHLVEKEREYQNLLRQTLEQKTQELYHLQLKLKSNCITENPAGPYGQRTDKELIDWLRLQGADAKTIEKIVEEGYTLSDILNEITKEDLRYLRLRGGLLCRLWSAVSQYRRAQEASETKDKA
Sequence of GSK3B (human) (P49841 whole entry, looked up): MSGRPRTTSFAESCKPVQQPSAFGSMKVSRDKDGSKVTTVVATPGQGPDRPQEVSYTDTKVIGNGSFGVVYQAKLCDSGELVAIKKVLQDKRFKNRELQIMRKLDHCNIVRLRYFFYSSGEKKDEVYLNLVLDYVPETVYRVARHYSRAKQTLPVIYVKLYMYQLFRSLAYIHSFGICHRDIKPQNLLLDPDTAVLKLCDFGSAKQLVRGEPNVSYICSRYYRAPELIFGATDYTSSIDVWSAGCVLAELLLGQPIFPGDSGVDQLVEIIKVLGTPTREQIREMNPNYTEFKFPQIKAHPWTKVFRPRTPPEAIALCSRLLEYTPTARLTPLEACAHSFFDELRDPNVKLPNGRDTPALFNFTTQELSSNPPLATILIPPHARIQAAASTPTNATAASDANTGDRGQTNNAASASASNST

COc1cc2c(Nc3ccc(NC(=O)c4ccccc4)cc3)ncnc2cc1OCCCN1CCOCC1
kinase still bound, per cent of control [1]: 100%
kinase still bound, per cent of control [2]: 100%
kinase still bound, per cent of control [3]: 100%
kinase still bound, per cent of control [4]: 100%
kinase still bound, per cent of control [5]: 100%
kinase still bound, per cent of control [6]: 35%
kinase still bound, per cent of control [7]: 81%
kinase still bound, per cent of control [8]: 75%
kinase still bound, per cent of control [9]: 17%
kinase still bound, per cent of control [10]: 70%
kinase still bound, per cent of control [11]: 100%
kinase still bound, per cent of control [12]: 16%
kinase still bound, per cent of control [13]: 0.3%
kinase still bound, per cent of control [14]: 81%
kinase still bound, per cent of control [15]: 100%
kinase still bound, per cent of control [16]: 44%
kinase still bound, per cent of control [17]: 59%
kinase still bound, per cent of control [18]: 92%
kinase still bound, per cent of control [19]: 4.2%
kinase still bound, per cent of control [20]: 62%
kinase still bound, per cent of control [21]: 81%
kinase still bound, per cent of control [22]: 2%
kinase still bound, per cent of control [23]: 33%
kinase still bound, per cent of control [24]: 42%
kinase still bound, per cent of control [25]: 64%
kinase still bound, per cent of control [26]: 100%
kinase still bound, per cent of control [27]: 84%
kinase still bound, per cent of control [28]: 67%
kinase still bound, per cent of control [29]: 8.8%
kinase still bound, per cent of control [30]: 8.6%
kinase still bound, per cent of control [31]: 0.15%
kinase still bound, per cent of control [32]: 55%
kinase still bound, per cent of control [33]: 72%
kinase still bound, per cent of control [34]: 23%
kinase still bound, per cent of control [35]: 94%
kinase still bound, per cent of control [36]: 100%
kinase still bound, per cent of control [37]: 100%
kinase still bound, per cent of control [38]: 72%
kinase still bound, per cent of control [39]: 2%
kinase still bound, per cent of control [40]: 100%

CCN1CCN(Cc2ccc(NC(=O)c3ccc(C)c(/C=C/c4cnc5[nH]ccc5c4OC)c3)cc2C(F)(F)F)CC1
kinase still bound, per cent of control [1]: 26%
kinase still bound, per cent of control [2]: 0.75%
kinase still bound, per cent of control [3]: 1.8%
kinase still bound, per cent of control [4]: 100%
kinase still bound, per cent of control [5]: 100%
kinase still bound, per cent of control [6]: 22%
kinase still bound, per cent of control [7]: 89%
kinase still bound, per cent of control [8]: 100%
kinase still bound, per cent of control [9]: 5.7%
kinase still bound, per cent of control [10]: 99%
kinase still bound, per cent of control [11]: 95%
kinase still bound, per cent of control [12]: 0%
kinase still bound, per cent of control [13]: 0.2%
kinase still bound, per cent of control [14]: 95%
kinase still bound, per cent of control [15]: 54%
kinase still bound, per cent of control [16]: 2.8%
kinase still bound, per cent of control [17]: 15%
kinase still bound, per cent of control [18]: 57%
kinase still bound, per cent of control [19]: 2.7%
kinase still bound, per cent of control [20]: 20%
kinase still bound, per cent of control [21]: 18%
kinase still bound, per cent of control [22]: 0.15%
kinase still bound, per cent of control [23]: 2.8%
kinase still bound, per cent of control [24]: 15%
kinase still bound, per cent of control [25]: 23%
kinase still bound, per cent of control [26]: 30%
kinase still bound, per cent of control [27]: 0%
kinase still bound, per cent of control [28]: 31%
kinase still bound, per cent of control [29]: 0.1%
kinase still bound, per cent of control [30]: 97%
kinase still bound, per cent of control [31]: 16%
kinase still bound, per cent of control [32]: 30%
kinase still bound, per cent of control [33]: 12%
kinase still bound, per cent of control [34]: 1.5%
kinase still bound, per cent of control [35]: 26%
kinase still bound, per cent of control [36]: 3.6%
kinase still bound, per cent of control [37]: 100%
kinase still bound, per cent of control [38]: 20%
kinase still bound, per cent of control [39]: 0.45%
kinase still bound, per cent of control [40]: 50%
